From ChEMBL document CHEMBL3991601, “The target landscape of clinical kinase drugs” (Science, 2017)
Activity calls are given as the source filed them.

Tests used:
[1] = target: Cyclin-dependent kinase 2 (Homo sapiens, UniProt P24941)
[2] = target: Hepatocyte growth factor receptor (Homo sapiens, UniProt P08581)
[3] = target: Cyclin-dependent kinase 17 (Homo sapiens, UniProt Q00537)
[4] = target: Serine/threonine-protein kinase 24 (Homo sapiens, UniProt Q9Y6E0)
[5] = target: Epidermal growth factor receptor (Homo sapiens, UniProt P00533)
[6] = target: Serine/threonine-protein kinase ATR (Homo sapiens, UniProt Q13535)
Obg-like ATPase 1 = Obg-like ATPase 1 (Homo sapiens, UniProt Q9NTK5)
[7] = target: T1, Thyroid hormone receptor-associated protein 3 (Homo sapiens, UniProt Q9Y2W1)
T1 sequence (Q9Y2W1 whole entry): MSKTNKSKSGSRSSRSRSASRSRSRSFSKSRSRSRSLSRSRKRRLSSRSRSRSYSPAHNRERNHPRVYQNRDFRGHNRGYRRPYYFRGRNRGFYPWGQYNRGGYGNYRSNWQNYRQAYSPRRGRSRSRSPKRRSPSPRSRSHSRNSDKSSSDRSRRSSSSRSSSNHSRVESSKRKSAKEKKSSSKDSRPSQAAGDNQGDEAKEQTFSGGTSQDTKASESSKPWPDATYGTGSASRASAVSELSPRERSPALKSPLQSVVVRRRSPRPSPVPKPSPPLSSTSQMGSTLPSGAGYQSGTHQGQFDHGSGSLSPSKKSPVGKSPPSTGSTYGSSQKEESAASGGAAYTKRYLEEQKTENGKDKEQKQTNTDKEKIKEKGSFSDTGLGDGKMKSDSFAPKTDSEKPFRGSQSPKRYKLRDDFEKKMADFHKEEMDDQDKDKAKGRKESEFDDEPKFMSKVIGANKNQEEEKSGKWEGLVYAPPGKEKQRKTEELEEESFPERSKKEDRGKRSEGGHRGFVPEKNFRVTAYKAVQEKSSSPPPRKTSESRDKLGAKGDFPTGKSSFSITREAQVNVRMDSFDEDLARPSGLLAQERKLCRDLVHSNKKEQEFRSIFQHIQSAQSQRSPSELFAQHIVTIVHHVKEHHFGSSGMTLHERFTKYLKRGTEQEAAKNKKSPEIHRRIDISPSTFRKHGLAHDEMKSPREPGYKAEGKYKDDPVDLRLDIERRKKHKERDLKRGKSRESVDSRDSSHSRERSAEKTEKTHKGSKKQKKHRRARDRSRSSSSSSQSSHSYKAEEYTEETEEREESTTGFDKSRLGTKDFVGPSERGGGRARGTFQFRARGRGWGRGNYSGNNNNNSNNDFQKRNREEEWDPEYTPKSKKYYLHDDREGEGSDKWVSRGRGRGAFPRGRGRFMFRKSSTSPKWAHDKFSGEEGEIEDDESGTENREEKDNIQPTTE

[8] = target: Membrane-associated progesterone receptor component 1 (Homo sapiens, UniProt O00264)
[9] = target: Dual specificity protein kinase CLK4 (Homo sapiens, UniProt Q9HAZ1)
[10] = target: T2, Protein kinase C zeta type (Homo sapiens, UniProt Q05513)
T2 sequence (Q05513 whole entry): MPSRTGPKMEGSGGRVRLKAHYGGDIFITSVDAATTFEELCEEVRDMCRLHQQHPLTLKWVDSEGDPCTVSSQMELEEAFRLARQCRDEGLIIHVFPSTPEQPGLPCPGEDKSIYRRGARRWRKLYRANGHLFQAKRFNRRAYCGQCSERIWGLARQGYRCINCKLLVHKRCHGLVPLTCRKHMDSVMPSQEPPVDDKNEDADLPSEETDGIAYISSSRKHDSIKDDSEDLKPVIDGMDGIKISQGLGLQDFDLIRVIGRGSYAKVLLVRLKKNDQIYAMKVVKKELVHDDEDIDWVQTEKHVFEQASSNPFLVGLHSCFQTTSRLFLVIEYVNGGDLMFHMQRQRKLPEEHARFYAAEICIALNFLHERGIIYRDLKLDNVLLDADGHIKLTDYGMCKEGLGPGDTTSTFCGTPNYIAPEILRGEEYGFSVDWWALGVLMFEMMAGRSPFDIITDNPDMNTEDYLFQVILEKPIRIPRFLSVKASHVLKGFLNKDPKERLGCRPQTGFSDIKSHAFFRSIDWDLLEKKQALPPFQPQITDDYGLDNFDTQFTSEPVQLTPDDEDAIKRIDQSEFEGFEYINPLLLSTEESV

[11] = target: Serine/threonine-protein kinase pim-2 (Homo sapiens, UniProt Q9P1W9)
[12] = target: Serine/threonine-protein kinase PLK1 (Homo sapiens, UniProt P53350)
Also: in the data inactive means no Kd found up to 30 µM.

Obg-like ATPase 1, sequence (Q9NTK5 whole entry, looked up): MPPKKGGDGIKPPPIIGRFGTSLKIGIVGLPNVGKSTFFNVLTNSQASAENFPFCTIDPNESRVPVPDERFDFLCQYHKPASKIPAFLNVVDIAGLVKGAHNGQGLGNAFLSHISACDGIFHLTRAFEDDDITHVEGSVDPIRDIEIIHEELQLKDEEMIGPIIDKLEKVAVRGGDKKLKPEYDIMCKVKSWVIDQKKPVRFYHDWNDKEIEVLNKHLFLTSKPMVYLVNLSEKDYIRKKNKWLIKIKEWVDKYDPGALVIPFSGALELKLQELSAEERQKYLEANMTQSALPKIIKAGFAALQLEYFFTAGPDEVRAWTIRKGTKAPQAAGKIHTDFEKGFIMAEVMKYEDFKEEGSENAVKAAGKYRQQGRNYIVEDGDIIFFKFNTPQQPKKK
Serine/threonine-protein kinase ATR, sequence (Q13535 whole entry): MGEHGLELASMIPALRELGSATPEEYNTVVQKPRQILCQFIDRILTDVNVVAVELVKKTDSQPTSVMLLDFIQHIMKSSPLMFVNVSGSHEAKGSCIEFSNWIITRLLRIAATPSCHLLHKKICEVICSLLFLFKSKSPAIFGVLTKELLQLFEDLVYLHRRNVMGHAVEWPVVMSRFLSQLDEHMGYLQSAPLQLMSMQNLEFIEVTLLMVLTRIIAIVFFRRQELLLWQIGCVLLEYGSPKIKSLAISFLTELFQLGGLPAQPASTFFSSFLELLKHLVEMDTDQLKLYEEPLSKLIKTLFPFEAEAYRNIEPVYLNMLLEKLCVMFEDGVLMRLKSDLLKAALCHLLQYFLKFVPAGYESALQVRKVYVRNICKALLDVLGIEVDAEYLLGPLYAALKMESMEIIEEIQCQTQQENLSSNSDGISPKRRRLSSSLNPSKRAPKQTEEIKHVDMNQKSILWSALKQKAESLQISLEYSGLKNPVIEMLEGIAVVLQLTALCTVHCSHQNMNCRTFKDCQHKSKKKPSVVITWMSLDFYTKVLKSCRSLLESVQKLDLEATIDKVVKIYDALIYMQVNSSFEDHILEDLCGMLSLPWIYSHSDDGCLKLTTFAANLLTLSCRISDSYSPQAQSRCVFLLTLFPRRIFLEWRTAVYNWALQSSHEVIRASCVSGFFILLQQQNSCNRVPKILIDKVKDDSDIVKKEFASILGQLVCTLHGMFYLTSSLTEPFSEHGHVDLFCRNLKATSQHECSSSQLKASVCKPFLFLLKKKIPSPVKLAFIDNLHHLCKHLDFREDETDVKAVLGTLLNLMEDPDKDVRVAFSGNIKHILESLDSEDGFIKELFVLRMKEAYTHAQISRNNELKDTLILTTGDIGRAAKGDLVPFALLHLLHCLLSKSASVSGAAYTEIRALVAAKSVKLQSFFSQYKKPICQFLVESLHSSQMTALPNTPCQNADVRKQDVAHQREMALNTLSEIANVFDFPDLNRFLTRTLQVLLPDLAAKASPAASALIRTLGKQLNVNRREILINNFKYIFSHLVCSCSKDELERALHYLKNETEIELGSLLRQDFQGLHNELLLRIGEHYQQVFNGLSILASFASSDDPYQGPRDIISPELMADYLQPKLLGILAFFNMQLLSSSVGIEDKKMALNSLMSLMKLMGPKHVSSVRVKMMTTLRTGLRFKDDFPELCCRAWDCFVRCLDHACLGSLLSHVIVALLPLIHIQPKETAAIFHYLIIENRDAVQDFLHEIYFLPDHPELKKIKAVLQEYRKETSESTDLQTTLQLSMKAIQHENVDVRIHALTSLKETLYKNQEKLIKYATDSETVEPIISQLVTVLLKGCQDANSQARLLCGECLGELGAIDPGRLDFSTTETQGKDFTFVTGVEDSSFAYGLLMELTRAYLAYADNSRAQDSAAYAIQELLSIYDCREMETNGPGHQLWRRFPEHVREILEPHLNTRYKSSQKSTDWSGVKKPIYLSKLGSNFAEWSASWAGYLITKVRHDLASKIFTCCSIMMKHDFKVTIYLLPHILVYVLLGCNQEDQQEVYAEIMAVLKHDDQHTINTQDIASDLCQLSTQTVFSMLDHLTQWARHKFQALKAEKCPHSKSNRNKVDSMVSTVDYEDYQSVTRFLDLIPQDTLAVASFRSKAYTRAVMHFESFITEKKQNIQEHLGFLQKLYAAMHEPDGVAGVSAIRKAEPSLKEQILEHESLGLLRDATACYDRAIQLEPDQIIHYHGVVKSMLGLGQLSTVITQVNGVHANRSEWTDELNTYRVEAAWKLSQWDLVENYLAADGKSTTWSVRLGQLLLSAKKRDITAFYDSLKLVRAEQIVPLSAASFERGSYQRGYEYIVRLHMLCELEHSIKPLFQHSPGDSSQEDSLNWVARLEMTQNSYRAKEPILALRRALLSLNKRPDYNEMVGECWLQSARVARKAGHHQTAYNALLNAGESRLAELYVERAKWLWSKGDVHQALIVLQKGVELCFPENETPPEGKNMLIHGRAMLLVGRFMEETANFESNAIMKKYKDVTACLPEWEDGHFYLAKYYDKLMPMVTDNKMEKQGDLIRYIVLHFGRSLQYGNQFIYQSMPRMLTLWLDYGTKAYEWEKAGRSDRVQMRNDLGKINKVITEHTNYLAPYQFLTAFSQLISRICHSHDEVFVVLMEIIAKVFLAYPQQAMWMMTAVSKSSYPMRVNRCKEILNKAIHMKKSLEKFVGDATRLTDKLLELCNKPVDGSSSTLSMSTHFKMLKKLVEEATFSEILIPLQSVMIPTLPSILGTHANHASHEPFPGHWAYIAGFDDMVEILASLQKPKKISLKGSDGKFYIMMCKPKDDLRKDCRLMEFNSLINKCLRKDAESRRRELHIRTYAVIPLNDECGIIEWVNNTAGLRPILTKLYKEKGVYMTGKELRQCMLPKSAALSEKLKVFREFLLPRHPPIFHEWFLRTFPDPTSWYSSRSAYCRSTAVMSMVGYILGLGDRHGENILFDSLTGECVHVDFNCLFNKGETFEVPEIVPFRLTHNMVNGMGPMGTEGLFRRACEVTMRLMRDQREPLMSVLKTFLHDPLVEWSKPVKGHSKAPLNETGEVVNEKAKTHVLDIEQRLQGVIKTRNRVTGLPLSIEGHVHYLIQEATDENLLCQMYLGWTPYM
Epidermal growth factor receptor, sequence (P00533 whole entry): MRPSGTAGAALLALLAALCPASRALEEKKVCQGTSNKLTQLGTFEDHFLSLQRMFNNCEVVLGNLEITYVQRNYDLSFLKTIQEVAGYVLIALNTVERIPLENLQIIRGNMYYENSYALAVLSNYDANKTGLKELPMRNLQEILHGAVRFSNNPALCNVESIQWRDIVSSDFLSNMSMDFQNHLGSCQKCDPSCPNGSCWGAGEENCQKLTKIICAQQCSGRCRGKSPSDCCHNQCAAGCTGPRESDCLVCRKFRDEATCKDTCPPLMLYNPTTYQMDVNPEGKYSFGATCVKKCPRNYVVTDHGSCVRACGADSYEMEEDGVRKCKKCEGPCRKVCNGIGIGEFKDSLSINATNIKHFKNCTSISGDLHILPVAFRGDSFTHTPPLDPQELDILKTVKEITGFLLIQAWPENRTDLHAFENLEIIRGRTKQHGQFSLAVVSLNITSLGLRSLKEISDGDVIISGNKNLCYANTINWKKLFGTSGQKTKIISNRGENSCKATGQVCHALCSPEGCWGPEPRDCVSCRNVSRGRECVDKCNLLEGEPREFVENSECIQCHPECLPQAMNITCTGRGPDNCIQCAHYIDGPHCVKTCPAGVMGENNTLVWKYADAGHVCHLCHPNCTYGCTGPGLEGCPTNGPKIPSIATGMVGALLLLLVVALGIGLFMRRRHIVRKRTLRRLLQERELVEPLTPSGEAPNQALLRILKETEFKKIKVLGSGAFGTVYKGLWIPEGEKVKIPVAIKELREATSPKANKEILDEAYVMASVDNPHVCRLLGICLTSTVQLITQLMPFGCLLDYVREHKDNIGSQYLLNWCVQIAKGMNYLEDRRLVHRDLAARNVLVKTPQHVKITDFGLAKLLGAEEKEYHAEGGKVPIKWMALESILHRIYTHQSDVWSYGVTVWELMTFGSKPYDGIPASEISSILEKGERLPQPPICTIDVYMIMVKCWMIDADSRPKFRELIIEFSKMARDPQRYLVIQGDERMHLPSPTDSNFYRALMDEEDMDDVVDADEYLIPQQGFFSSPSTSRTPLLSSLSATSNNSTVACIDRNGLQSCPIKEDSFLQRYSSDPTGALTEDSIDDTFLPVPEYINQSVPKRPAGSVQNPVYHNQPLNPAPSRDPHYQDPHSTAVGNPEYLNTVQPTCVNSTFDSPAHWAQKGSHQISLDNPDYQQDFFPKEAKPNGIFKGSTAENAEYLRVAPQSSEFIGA
Serine/threonine-protein kinase 24, sequence (Q9Y6E0 whole entry): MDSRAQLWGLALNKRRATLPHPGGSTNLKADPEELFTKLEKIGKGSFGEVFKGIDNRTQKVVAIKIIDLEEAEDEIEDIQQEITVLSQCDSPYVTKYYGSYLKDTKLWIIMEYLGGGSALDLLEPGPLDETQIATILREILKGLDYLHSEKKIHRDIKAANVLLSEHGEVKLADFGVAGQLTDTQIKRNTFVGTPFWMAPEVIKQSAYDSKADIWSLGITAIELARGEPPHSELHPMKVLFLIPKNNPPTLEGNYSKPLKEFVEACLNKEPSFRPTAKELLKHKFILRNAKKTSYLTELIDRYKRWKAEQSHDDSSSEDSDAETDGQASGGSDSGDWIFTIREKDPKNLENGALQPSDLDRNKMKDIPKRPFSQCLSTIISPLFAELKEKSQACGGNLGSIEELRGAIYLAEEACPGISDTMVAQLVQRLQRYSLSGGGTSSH
Serine/threonine-protein kinase pim-2, sequence (Q9P1W9 whole entry): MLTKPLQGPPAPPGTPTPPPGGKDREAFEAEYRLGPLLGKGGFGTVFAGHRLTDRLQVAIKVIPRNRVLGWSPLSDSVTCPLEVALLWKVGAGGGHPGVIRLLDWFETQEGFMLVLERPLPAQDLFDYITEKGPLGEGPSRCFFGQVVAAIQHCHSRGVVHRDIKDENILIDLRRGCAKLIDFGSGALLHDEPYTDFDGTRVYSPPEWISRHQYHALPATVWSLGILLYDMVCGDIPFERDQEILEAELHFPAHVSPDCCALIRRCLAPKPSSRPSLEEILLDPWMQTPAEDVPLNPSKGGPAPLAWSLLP

| Structure (SMILES) | Kd [1] | Kd [2] | Kd [3] | Kd [4] | Kd [5] | Kd [6] | Kd (Obg-like ATPase 1) | Kd [7] | Kd [8] | Kd [9] | Kd [10] | Kd [11] | Kd [12] |
| --- | --- | --- | --- | --- | --- | --- | --- | --- | --- | --- | --- | --- | --- |
| CCS(=O)(=O)N1CC(CC#N)(n2cc(-c3ncnc4[nH]ccc34)cn2)C1 [BARICITINIB] | > 30 µM (inactive) | > 30 µM (inactive) | > 30 µM (inactive) | > 30 µM (inactive) | > 30 µM (inactive) | > 30 µM (inactive) | > 30 µM (inactive) | > 30 µM (inactive) | > 30 µM (inactive) | > 30 µM (inactive) | – | – | – |
| CN1N=C(N)c2cn([C@@H]3O[C@H](COP(=O)(O)O)[C@@H](O)[C@H]3O)c3ncnc1c23 [TRICIRIBINE PHOSPHATE] | > 30 µM (inactive) | > 30 µM (inactive) | – | > 30 µM (inactive) | > 30 µM (inactive) | – | > 30 µM (inactive) | > 30 µM (inactive) | > 30 µM (inactive) | – | – | – | – |
| COc1cc2nccc(Oc3ccc(NC(=O)NC4CC4)c(Cl)c3)c2cc1C(N)=O [LENVATINIB] | > 30 µM (inactive) | > 30 µM (inactive) | > 30 µM (inactive) | > 30 µM (inactive) | – | – | > 30 µM (inactive) | > 30 µM (inactive) | > 30 µM (inactive) | > 30 µM (inactive) | – | – | – |
| C=CC(=O)N1CCC(Oc2cc3c(Nc4ccc(Cl)c(Cl)c4F)ncnc3cc2OC)CC1 [POZIOTINIB] | > 30 µM (inactive) | 0.794 µM | > 30 µM (inactive) | > 30 µM (inactive) | – | – | > 30 µM (inactive) | – | – | – | > 30 µM (inactive) | – | – |
| Nc1nc(N)c2nc(-c3cccc(O)c3)c(-c3cccc(O)c3)nc2n1 [TG100-115] | – | – | – | – | > 30 µM (inactive) | > 30 µM (inactive) | > 30 µM (inactive) | > 30 µM (inactive) | – | – | > 30 µM (inactive) | – | – |
| O=C(Nc1cccc(Cl)c1)Nc1ncc(CCNc2ncnc3ccsc23)s1 [SNS-314] | – | – | – | > 30 µM (inactive) | – | – | > 30 µM (inactive) | > 30 µM (inactive) | > 30 µM (inactive) | – | – | – | – |
| COc1cc(OC)c(/C=C/S(=O)(=O)Cc2ccc(OC)c(NCC(=O)O)c2)c(OC)c1 [RIGOSERTIB] | > 30 µM (inactive) | 0.94 µM (active) | > 30 µM (inactive) | > 30 µM (inactive) | > 30 µM (inactive) | > 30 µM (inactive) | > 30 µM (inactive) | > 30 µM (inactive) | – | > 30 µM (inactive) | > 30 µM (inactive) | > 30 µM (inactive) | – |
| C[C@@H](c1ccc2nccn2c1)n1nnc2ncc(-c3cnn(C)c3)nc21 [SAVOLITINIB] | > 30 µM (inactive) | – | > 30 µM (inactive) | > 30 µM (inactive) | > 30 µM (inactive) | > 30 µM (inactive) | – | > 30 µM (inactive) | > 30 µM (inactive) | > 30 µM (inactive) | – | – | – |
| CN1CCN(c2ccc3nc(-c4c(N)c5c(F)cccc5[nH]c4=O)[nH]c3c2)CC1 [DOVITINIB] | – | – | – | – | – | – | > 30 µM (inactive) | – | > 30 µM (inactive) | – | > 30 µM (inactive) | – | – |
| C1=C/COCc2cc(ccc2OCCN2CCCC2)Nc2nccc(n2)-c2cccc(c2)COC/1 [PACRITINIB] | > 30 µM (inactive) | > 30 µM (inactive) | – | > 30 µM (inactive) | > 30 µM (inactive) | – | > 30 µM (inactive) | > 30 µM (inactive) | – | – | – | – | – |
| N[C@@H]1CCCN(c2c(/C=C3\SC(=O)NC3=O)cccc2-c2ccccc2)C1 | > 30 µM (inactive) | > 30 µM (inactive) | – | > 30 µM (inactive) | > 30 µM (inactive) | – | > 30 µM (inactive) | – | > 30 µM (inactive) | – | – | – | > 30 µM (inactive) |
| Cn1ncc(Cl)c1-c1cc(C(=O)N[C@H](CN)Cc2cccc(F)c2)sc1Cl [AFURESERTIB] | > 30 µM (inactive) | – | > 30 µM (inactive) | – | > 30 µM (inactive) | – | – | – | > 30 µM (inactive) | – | – | > 30 µM (inactive) | – |
| CCc1cnn2c(NCc3ccc[n+]([O-])c3)cc(N3CCCC[C@H]3CCO)nc12 [DINACICLIB] | – | – | – | > 30 µM (inactive) | > 30 µM (inactive) | > 30 µM (inactive) | > 30 µM (inactive) | > 30 µM (inactive) | > 30 µM (inactive) | – | > 30 µM (inactive) | > 30 µM (inactive) | – |
| CC[C@@H]1C(=O)N(C)c2cnc(Nc3ccc(C(=O)N[C@H]4CC[C@H](N5CCN(CC6CC6)CC5)CC4)cc3OC)nc2N1C(C)C [VOLASERTIB] | > 30 µM (inactive) | > 30 µM (inactive) | > 30 µM (inactive) | > 30 µM (inactive) | > 30 µM (inactive) | – | > 30 µM (inactive) | > 30 µM (inactive) | > 30 µM (inactive) | > 30 µM (inactive) | – | – | > 30 µM (inactive) |
| Cc1cn(-c2cc(NC(=O)c3ccc(C)c(Nc4nccc(-c5cccnc5)n4)c3)cc(C(F)(F)F)c2)cn1 [NILOTINIB] | – | – | – | – | – | – | > 30 µM (inactive) | > 30 µM (inactive) | > 30 µM (inactive) | – | > 30 µM (inactive) | – | – |
| CC(C)Nc1cc(-c2c[nH]c(C(=O)N[C@H](CO)c3cccc(Cl)c3)c2)c(Cl)cn1 [ULIXERTINIB] | > 30 µM (inactive) | > 30 µM (inactive) | > 30 µM (inactive) | > 30 µM (inactive) | > 30 µM (inactive) | – | – | – | > 30 µM (inactive) | > 30 µM (inactive) | – | – | > 30 µM (inactive) |
| CNC(=O)c1ccc(-c2cnc3ncc(Cc4ccc5ncccc5c4)n3n2)cc1F [CAPMATINIB] | > 30 µM (inactive) | – | > 30 µM (inactive) | – | > 30 µM (inactive) | > 30 µM (inactive) | > 30 µM (inactive) | – | – | – | > 30 µM (inactive) | > 30 µM (inactive) | – |

The remaining lines, values ahead:

| Kd [1] | Kd [2] | Kd [3] | Kd [4] | Kd [5] | Kd [6] | Kd (Obg-like ATPase 1) | Kd [7] | Kd [8] | Kd [9] | Kd [10] | Kd [11] | Kd [12] | Structure (SMILES) |
| --- | --- | --- | --- | --- | --- | --- | --- | --- | --- | --- | --- | --- | --- |
| > 30 µM (inactive) | > 30 µM (inactive) | > 30 µM (inactive) | > 30 µM (inactive) | > 30 µM (inactive) | > 30 µM (inactive) | – | – | – | – | – | – | – | C[C@@H](Nc1cc(F)cc(F)c1)c1cc(C(=O)N(C)C)cc2c(=O)cc(N3CCOCC3)oc12 [AZD-8186] |
| – | – | – | – | – | – | > 30 µM (inactive) | > 30 µM (inactive) | > 30 µM (inactive) | – | > 30 µM (inactive) | – | – | CCn1c(-c2nonc2N)nc2c(C#CC(C)(C)O)ncc(OC[C@H]3CCCNC3)c21 [GSK-690693] |
| > 30 µM (inactive) | > 30 µM (inactive) | – | > 30 µM (inactive) | > 30 µM (inactive) | – | > 30 µM (inactive) | > 30 µM (inactive) | > 30 µM (inactive) | – | – | > 30 µM (inactive) | – | Cn1cc(-c2ccc(F)c(C(F)(F)F)c2)nc1C1CCN(c2ncnc3[nH]ncc23)CC1 [LY-2584702] |
| > 30 µM (inactive) | > 30 µM (inactive) | > 30 µM (inactive) | – | > 30 µM (inactive) | – | – | – | > 30 µM (inactive) | – | – | – | – | CNC(=O)c1ccc(C)c(-n2c(C)cc(OCc3ccc(F)cc3F)c(Br)c2=O)c1 [PH-797804] |
| > 30 µM (inactive) | > 30 µM (inactive) | > 30 µM (inactive) | > 30 µM (inactive) | > 30 µM (inactive) | – | > 30 µM (inactive) | > 30 µM (inactive) | > 30 µM (inactive) | > 30 µM (inactive) | > 30 µM (inactive) | > 30 µM (inactive) | – | O=C(O)[C@]1(Cc2cccc(Nc3nccs3)n2)CC[C@@H](Oc2cccc(Cl)c2F)CC1 [MK-5108] |
